For orientation: IC50 means the point on the concentration scale where inhibition reaches its midpoint. Broadly, the logP is the decadic logarithm of the partition coefficient of the neutral form, usually between octanol and water. The logD is the decadic logarithm of the distribution of all forms, ionised or not, between an organic phase and buffer at a given pH. The pKa is the negative logarithm of the acid dissociation constant. Broadly, the half-life is how long it takes for the measured level to halve. A word on the AUC(0-t): it is the area under the concentration-time curve up to a stated or last time point.

Active and inactive are the calls of the source. No cut-off for these calls is given here.

We go through nine molecules from ChEMBL document CHEMBL2321701 (J Med Chem, 2013).

Series [1] relates to Plasmodium falciparum. In words: animal or person. As to conditions: NF54.
Series [2] is described as follows: Partition coefficient, log P of the compound. In kind it is physicochemical. As to conditions: octanol/water.
A short description of series [3]: Lipophilicity, log D of the compound at pH 7.4. In kind it is physicochemical. As to conditions: buffer.
Series [4] can be described thus: Intrinsic clearance in mouse liver microsomes at 1 uM after 60 mins by LC-MS analysis. In kind it is ADME, Microsome. As to conditions: read-out: CLH. (Microsomes from liver hold many membrane-bound enzymes, among them those of drug oxidation.)
Series [5] concerns Plasmodium falciparum. The experiment in a line: microbe, parasite or virus in culture. As to conditions: K1.
Series [6] is described as follows: Dissociation constant, pKa of the compound. Format: physicochemical.
Series [7] relates to Plasmodium berghei (mouse). The experiment in a line: Antimalarial activity against chloroquine-sensitive Plasmodium berghei infected mouse assessed as cured animal at 30 mg/kg, po measured on day 30 postinfection.
A short description of series [8]: Half life in mouse whole blood. Format: ADME, tissue-based.
Series [9] has as its system Plasmodium berghei (mouse). The experiment in a line: Antimalarial activity against chloroquine-sensitive Plasmodium berghei infected mouse assessed as survival at 30 mg/kg, po.
A short description of series [10]: Plasma concentration in Swiss outbred mouse at 30 mg/kg, po at 24 hrs by LC-MS analysis. In kind it is ADME, organism-based. On the set-up: dose 30 mg/kg, route oral.
Series [11] concerns Plasmodium falciparum. In words: Antimalarial activity against chloroquine-sensitive Plasmodium falciparum NF54 infected mouse assessed as reduction in parasitemia at 30 mg/kg, po measured on day 3 postinfection relative to control. Format: functional. On the set-up: scale not given: the % may be the effect or the level left.
The nature of series [12]: AUC (0 to 24 hrs) in mouse at 30 mg/kg, po by LC-MS analysis. Format: ADME, organism-based. More on the design: time < 24 hr, dose 30 mg/kg, route oral. As to conditions: plasma.

As to `c1cc([C@H]2CC[C@@]3(CC2)C[C@@]2(OO3)C3CC4CC(C3)CC2C4)ccc1OCCN1CCOCC1`, the values for the IC50 in series [1] and in series [5] were 1200 nM and 370 nM, respectively. In [2], the log partition coefficient (logP) turned out to be 5.66. In addition, the logD in series [3] was 5.56. Besides, the microsomal CLint at 1 µM in series [4] amounted to 28 µL/min/mg. The same molecule yielded a pKa in [6] of 6.82.
With `CC(C)(N)CNC(=O)CC1CCC2(CC1)OOC1(OO2)C2CC3CC(C2)CC1C3` (configuration not stated), the concentration for half-maximal inhibition (IC50) in series [1] was determined as 1.7 nM; in [5], 0.9 nM. The log partition coefficient (logP) in series [2] was 2.26. In [3], the pH-dependent lipophilicity (logD) is 0.87. Also, in series [7], the outcome was inactive. The same molecule gave a half-life in series [8] of 54.6 min. Moreover, in series [9], the Survival was 9 days. Further, in series [4], the microsomal CLint at 1 µM was 14 µL/min/mg. Also, the concentration at 24 h in series [10] was less than 1 ng/mL. In addition, in [11], the Activity turned out to be 99.5%. The molecule further returned an AUC(0-t) at 24 h in [12] of 13.5 µM·h. The molecule also had a pKa in series [6] of 9.05.
With `CC(C)(N)CNC(=O)C[C@H]1CC[C@]2(CC1)OO[C@]1(O2)C2CC3CC(C2)CC1C3` [OZ277], in series [2], the lipophilicity (logP) is 2.07. In series [3], this molecule returned a logD of 0.69. The result in [7] was inactive. The half-life in series [8] was 55.8 min. The Survival in [9] stood at 11 days. Also, the microsomal CLint at 1 µM in series [4] stood at 17 µL/min/mg. In series [10], this molecule gave a concentration at 24 h of less than 1 ng/mL. In addition, the Activity in series [11] is on record as 99.9%. The molecule also gave an AUC(0-t) at 24 h in [12] of 5.13 µM·h. This molecule also yielded a pKa in series [6] of 9.05.
As to `CCN(CC)CCCC(C)Nc1ccnc2cc(Cl)ccc12` (configuration not stated) [CHLOROQUINE], the outcome in series [7] was inactive. Also, in series [9], the Survival is 10 days.
For `CC(C)(N)CNC(=O)CC1CCC2(CC1)COC1(OO2)C2CC3CC(C2)CC1C3` (configuration not stated), the IC50 in [1] stood at 29 nM; in series [5], 19 nM. The molecule also registered a log partition coefficient (logP) in series [2] of 2.44. Further, the logD in [3] amounted to 1.05. Also, in series [7], the result was inactive. In addition, the half-life in series [8] was 138 min. Besides, in series [9], the Survival was 15 days. In addition, in series [4], the microsomal CLint at 1 µM is less than 7 µL/min/mg. The molecule also displayed a concentration at 24 h in series [10] of more than 10 ng/mL. Moreover, the Activity in series [11] is 99.1%. In addition, in series [12], the exposure AUC(0-t) at 24 h was 22.4 µM·h. Besides, the pKa in series [6] worked out at 9.05.
Consider `O[C@@H](c1cc(C(F)(F)F)nc2c(C(F)(F)F)cccc12)[C@H]1CCCCN1` (relative stereo) [(S,R)-MEFLOQUINE], for which the half-inhibitory concentration (IC50) in [1] came to 14 nM; in series [5], 7.2 nM. The result in series [7] was inactive. Besides, the Survival in series [9] is 22 days. Moreover, the Activity in [11] stood at 99.6%.
With `C[C@H]1[C@H](OC(=O)CCC(=O)O)O[C@@H]2O[C@@]3(C)CC[C@H]4[C@H](C)CC[C@@H]1[C@@]24OO3` [ARTESUNATE], the outcome in [7] was inactive. Besides, the Survival in series [9] turned out to be 9 days. The Activity in [11] was 92%.
As for `CC(C)(N)CNC(=O)C[C@H]1CC[C@@]2(CC1)C[C@@]1(OO2)C2CC3CC(C2)CC1C3`, the IC50 in series [1] turned out to be 440 nM; in series [5] it was 170 nM. The log partition coefficient (logP) in [2] turned out to be 3.21. This molecule displayed a log distribution coefficient (logD) in [3] of 1.83. For the same molecule, the half-life in series [8] was 60 min. Further, the microsomal CLint at 1 µM in series [4] amounted to 12 µL/min/mg. This molecule had a pKa in series [6] of 9.05.
Consider `c1cc([C@H]2CC[C@]3(CC2)OO[C@]2(O3)C3CC4CC(C3)CC2C4)ccc1OCCN1CCOCC1` [ARTEFENOMEL], for which the IC50 in series [1] worked out at 3.4 nM; in series [5], 2.8 nM. This molecule also showed a logP in series [2] of 4.63. In addition, the logD in series [3] turned out to be 4.53. Also, in series [7], the outcome was Active. In series [9], the Survival was more than 30 days. The molecule further returned a concentration at 24 h in [10] of more than 200 ng/mL. Also, the Activity in series [11] is recorded as more than 99.9%. In addition, the AUC(0-t) at 24 h in series [12] was determined as 52.7 µM·h. In series [6], this molecule registered a pKa of 6.81.
